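Dose response: 5 concentrations. Exposure: 48 h. Format: 96-well plates. Endpoint: linear interpolation; highest concentration if not reached. GI50: concentration for 50% inhibition of growth.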 Activity calls are given as the source filed them. Rule as the data show it: active = GI50 up to about 1.1 µM and inactive = higher.
Legend:
Test in all cases: NCI tumour cell line growth inhibition, 48 h
[1] = system: KM12
[2] = system: OVCAR-5
[3] = system: SF-539
[4] = system: SR
[5] = system: 786-0
[6] = system: A549
[7] = system: SN12C
[8] = system: EKVX
[9] = system: MDA-MB-435
[10] = system: NCI/ADR-RES
[11] = system: OVCAR-3
[12] = system: CCRF-CEM
[13] = system: OVCAR-8
[14] = system: COLO 205
[15] = system: UO-31
[16] = system: MDA-MB-231
[17] = system: UACC-257
[18] = system: PC-3
[19] = system: HCT-15
[20] = system: RXF 393
[21] = system: CAKI-1
[22] = system: MOLT-4
[23] = system: MDA-N
[24] = system: ACHN
[25] = system: K562
[26] = system: SW-620
[27] = system: SK-OV-3
[28] = system: MCF7
[29] = system: TK-10
[30] = system: HCT-116
[31] = system: SK-MEL-5
[32] = system: UACC-62
[33] = system: U-251
[34] = system: SNB-19
[35] = system: SF-295
[36] = system: SF-268
[37] = system: SK-MEL-2
[38] = system: NCI-H226
[39] = system: HCC 2998
[40] = system: HT-29
[41] = system: NCI-H522
[42] = system: NCI-H460
[43] = system: OVCAR-4
[44] = system: Hs-578T
[45] = system: LOX IMVI
[46] = system: RPMI-8226
[47] = system: DU-145
[48] = system: NCI-H23
[49] = system: HOP-62
[50] = system: SNB-75
[51] = system: T47D
[52] = system: IGROV-1
[53] = system: SK-MEL-28
[54] = system: HOP-92
[55] = system: Malme-3M
[56] = system: HL-60
[57] = system: M14

O=C(c1ccccc1)c1ccc(COc2ccc(C(c3c(O)c4ccccc4oc3=O)c3c(O)c4ccccc4oc3=O)cc2)cc1
GI50 [1]: 16.1 µM (inactive) | GI50 [2]: 18.9 µM (inactive) | GI50 [3]: 23.9 µM (inactive) | GI50 [4]: 35.9 µM (inactive) | GI50 [5]: 23.6 µM (inactive) | GI50 [6]: 26.2 µM (inactive) | GI50 [7]: 43.8 µM (inactive) | GI50 [8]: 19.8 µM (inactive) | GI50 [9]: 20.2 µM (inactive) | GI50 [10]: 19.5 µM (inactive) | GI50 [11]: 18.9 µM (inactive) | GI50 [12]: 3.84 µM (inactive) | GI50 [13]: 17.2 µM (inactive) | GI50 [14]: 20.2 µM (inactive) | GI50 [15]: 27.7 µM (inactive) | GI50 [16]: 34.3 µM (inactive) | GI50 [17]: 19.4 µM (inactive) | GI50 [18]: 18.3 µM (inactive) | GI50 [19]: 37.3 µM | GI50 [20]: 19 µM (inactive) | GI50 [21]: 22.8 µM (inactive) | GI50 [22]: 18.7 µM (inactive) | GI50 [23]: 26.5 µM (inactive) | GI50 [24]: 19.3 µM (inactive) | GI50 [25]: 19.9 µM (inactive) | GI50 [26]: 25.7 µM (inactive) | GI50 [27]: 19.2 µM (inactive) | GI50 [28]: 27.8 µM (inactive) | GI50 [29]: 17.1 µM (inactive) | GI50 [30]: 33.3 µM (inactive) | GI50 [31]: 18.8 µM (inactive) | GI50 [32]: 14 µM (inactive) | GI50 [33]: 89.3 µM (inactive) | GI50 [34]: 23.4 µM (inactive) | GI50 [35]: 19.4 µM (inactive) | GI50 [36]: 31.9 µM (inactive) | GI50 [37]: 18.2 µM (inactive) | GI50 [38]: 0.173 µM (active) | GI50 [39]: 18.5 µM (inactive) | GI50 [40]: 18.3 µM (inactive) | GI50 [41]: 18.2 µM (inactive) | GI50 [42]: 19.9 µM (inactive) | GI50 [43]: 30.2 µM (inactive) | GI50 [44]: 29.4 µM (inactive) | GI50 [45]: 23.9 µM (inactive) | GI50 [46]: 12.5 µM (inactive) | GI50 [47]: 59.8 µM (inactive) | GI50 [48]: 17.4 µM (inactive) | GI50 [49]: 20.5 µM (inactive) | GI50 [50]: 18.5 µM (inactive) | GI50 [51]: 20.5 µM (inactive) | GI50 [52]: 13.5 µM (inactive) | GI50 [53]: 17.9 µM (inactive)

COc1cc(OC)c(OC)cc1/C=C\c1nccc2ccccc12
GI50 [1]: 15.1 µM (inactive) | GI50 [2]: 29.3 µM (inactive) | GI50 [4]: 20.9 µM (inactive) | GI50 [6]: 25.6 µM (inactive) | GI50 [8]: 22.2 µM (inactive) | GI50 [10]: 31.2 µM (inactive) | GI50 [12]: 76.2 µM (inactive) | GI50 [13]: 23.2 µM (inactive) | GI50 [14]: 22.5 µM (inactive) | GI50 [15]: 16.8 µM (inactive) | GI50 [18]: 27.8 µM (inactive) | GI50 [54]: 15.3 µM (inactive) | GI50 [19]: > 10 µM | GI50 [20]: 18.7 µM (inactive) | GI50 [21]: 22.5 µM (inactive) | GI50 [22]: 16.1 µM (inactive) | GI50 [23]: > 10 µM (inactive) | GI50 [25]: 28.9 µM (inactive) | GI50 [26]: 26.9 µM (inactive) | GI50 [27]: 32.8 µM (inactive) | GI50 [29]: 27.8 µM (inactive) | GI50 [30]: 18.1 µM (inactive) | GI50 [31]: 15.2 µM (inactive) | GI50 [33]: 24.9 µM (inactive) | GI50 [34]: 18.5 µM (inactive) | GI50 [35]: 24 µM (inactive) | GI50 [36]: 23.3 µM (inactive) | GI50 [43]: 29.1 µM (inactive) | GI50 [44]: 28.3 µM (inactive) | GI50 [55]: 33 µM (inactive) | GI50 [46]: 18.7 µM (inactive) | GI50 [47]: 16.3 µM (inactive) | GI50 [48]: 23.4 µM (inactive) | GI50 [56]: 18.7 µM (inactive) | GI50 [50]: 23.9 µM (inactive) | GI50 [57]: 16.7 µM (inactive) | GI50 [51]: 24.2 µM (inactive) | GI50 [52]: 28.5 µM (inactive) | GI50 [53]: 29.3 µM (inactive)

Source: ChEMBL document CHEMBL1201862, “PubChem BioAssay data set” (2004)
